Marks after values point to notes of the source that are not given here.
Test system: patients with advanced cancer
Assay: Clinical efficacy (stable disease for 60 days or more) of (−)-gossypol by dosing schedule
Type: in vivo, human
Protocol: Following (−)-gossypol administration to patients with advanced cancer, clinical efficacy (e.g., patients having stable disease for 60 days or more) was monitored according to the following dosing schedules: “Daily” dosing: 5 to 60 mg/day of (−)-gossypol on 21 days per 28 day cycle; “BID×3d” dosing: 30 to 80 mg BID of (−)-gossypol on 3 consecutive days (e.g., Monday-Tuesday-Wednesday) repeated every other week per 28 day cycle; and “Weekly” dosing: 80 to 200 mg of (−)-gossypol once weekly per 28 day cycle. […] Tumor types represented in this study included: non-small cell lung cancer, non-Hodgkin lymphoma, chronic lymphocytic leukemia/small lymphocytic lymphoma, colon cancer, breast cancer, small cell lung cancer, head and neck cancer, sarcoma, hepatocellular cancer, pancreatic cancer, esophageal cancer, cholangiocarcinoma, carcinoid/neuroendocrine cancer, Hodgkin's lymphoma, endometrial cancer, adrenal cancer, melanoma, gastrointestinal stromal tumor, renal cancer, bladder cancer, and ovarian cancer.

`Cc1cc2c(C(C)C)c(O)c(O)c(C=O)c2c(O)c1-c1c(C)cc2c(C(C)C)c(O)c(O)c(C=O)c2c1O` [(−)-gossypol] was tested, and the “Median # (%) of patients with stable disease ≧60 days” value (shortened to “Median # (%) of patients”) (BID × 3 d, N = 21) was 6 (24) # (%), the “Median duration of days of stable disease (range)” value (“Median duration of days … (range)” below) (BID × 3 d, N = 21) was 180 (72-443) days and the “Median # (%) of patients” value (Daily, N = 38) was 6 (16) # (%). The “Median duration of days … (range)” value (Daily, N = 38) was 82 (56-341) days, the “Median # (%) of patients” value (Weekly, N = 12) was 2 (13) # (%) and the “Median duration of days … (range)” value (Weekly, N = 12) was 69 (58-80) days. For the same compound, the “Median duration of days of stable disease” value (pulsatile dosing (BID×3d) as compared to continuous daily dosing) was “longer median duration of days of stable disease”.
